The source of these data is patent US20050009849A1, “Pyridopyrimidine kinase inhibitors” (priority 2003, published 2005).

The nature of data set [1]: Serial plasma levels in mice (bioavailability). Conditions: mouse, oral, read-out: bioavailability after oral administration relative to intravenous or intraperitoneal injection. The data set is classed as in vivo. The source says:
Toxicological and pharmacological studies in mice and dogs include determining the maximum tolerated doses, measuring plasma and tissue levels and bioavailability after oral and parenteral administration, and developing optimal formulations for both oral and parenteral use. […] One way to administer the drug is by continuous infusion, and we are currently exploring the use of small osmotic pumps that can be inserted into the peritoneal cavities of mice that will deliver a constant concentration continuously. All animal studies are performed under the standard guidelines. Initial dose escalation studies are performed via oral delivery on control mice in order to determine the maximum tolerated dose (MTD). Studies proceed at or below half-MTD. The inherent kinetics for disease engraftment of each model system and the appropriate windows for duration of drug administration are then determined. In the human mesothelioma xenograft model, tumor formation is evaluated, allowing for the establishment of 1-2 mm^3 tumors before drug administration. Survival data are presented using the Kaplan-Meyer method. We will compare the administration of the inhibitors by i.v. or i.p. bolus injection with continuous i.p. infusion using an osmotic pump.

Data set [2] is described as follows: Pharmacokinetics in B6D2F1 mice. The data set is classed as in vivo. The following applies: for Cmax / MRT / bioavailability: B6D2F1, mouse, plasma, 1 mg; for Cmax / MRT / AUG (uM × Min) IV / AUG (uM × Min) PO: one milligram; for bioavailability: po vs iv. As to the method:
Solvents. […] SKI-DV281 was dissolved/suspended in a solution of 20% Cremophor +20% ethanol in saline.
Animal Experiments. For each compound, nineteen B6D2F1 mice were used. One mouse was used as control and the rest was divided into two groups with 9 mice per group. One milligram ([…] at 17 mg/ml) of compound was administered to the mice through oral gavage in one group and intravenously in the other group. At each time point (total of 9 time points) after the drug administration, one mouse from each group was sacrificed and approximately 400 μl of blood was collected into heparinized tubes through cardiac puncture. The plasma samples were analyzed as described below.
Analytical. The analysis of drug level in plasma is performed with an automated LC-MS system, which consists of a Prospekt-2 automated sample processor, interfaced with an Agilent 1100 LC-MS. The Prospekt-2 consists of two parts, high pressure eluter (HPE) and automated cartridge exchanger (ACE). The Agilent unit consists of a binary pump, an autosampler, the instrument will perform extraction and analysis automatically. The ACE picks up a new C, 18 solid phase […] (SPE) cartridge and places it into the clamp. The HPE activates the cartridge by passing acetonitrile and water through the cartridge. The autosampler picks up a predetermined amount of the plasma and the HPE flushes the plasma onto the SPE cartridge, washes it with water, then the sample is analyzed. When the cycle is completed, the ACE will fetch a new cartridge and cycle is repeated.
Data analysis and result. The pharmacokinetic curve for each compound was plotted intravenous versus oral (iv vs. po) (see FIGS. 27-29). Data analysis was performed with WinNonlin v.4 (Pharsight) using non-compartmental model.

Data set [3] relates to Ba/F3 cells expressing P loop mutant Y253H. Nature of the data set: MTS proliferation, Ba/F3 Bcr-Abl Y253H. The data set is classed as cell-based. As to the method:
(§1) Presence of single point mutations was verified by sequencing. […] Parental cells were cultured in presence of 2 ng/mL interleukin-3 (IL-3, R&D, Wiesbaden, Germany). IL-3 independent Ba/F3 cells expressing wild-type and mutant BCR-ABL were generated by electroporation and transformed upon withdrawal of IL-3. Expression of Bcr-Abl was confirmed by western blot and flow-cytometric analysis.
(§2) Proliferation was measured using a MTS tetrazolium-based method by absorption of formazam at 490 nm (CellTiter 96, Promega, Madison, Wis., USA). Measures were taken as triplicates after 24 and 48 hours of culture without and in the presence of inhibitor at the indicated concentrations.

Another data set has as its target T1, Bcr-Abl wild-type (Homo sapiens, UniProt P00519).
T1 construct: expressed in transfected cells; host or cells: Ba/F3 cells (electroporation, IL-3 independent); the other entry of the earlier key: BCR (P11274, Breakpoint cluster region protein)
The data set can be described thus: Bcr-Abl tyrosine phosphorylation in Ba/F3 cells, wild-type. The class given is cell-based.

A further data set deals with parental Ba/F3 cells. Nature of the data set: MTS proliferation, parental Ba/F3 cells. The class given is cell-based. The following applies: read-out: IC50, unspecific growth inhibition. The source says:
[…]. Lancet, 359: 487-491, 2002; incorporated herein by reference). Briefly, RT-PCR fragments derived from clinical samples were cloned into pBlueskript SK+ p185^bcr-abl (Stratagene, Amsterdam, NL), and subcloned into pcDNA3.1/Zeo (+) (Invitrogen, Leek, NL) and Mig EGFP (Bai, R. Y., Ouyang, T., Miething, C., Morris, S. W., Peschel, C., and Duyster, J. Nucleophosmin-anaplastic lymphoma kinase associated with anaplastic large-cell lymphoma activates the phosphatidylinositol 3-kinase/Akt antiapoptotic signaling pathway. Blood, 96: 4319-4327, 2000; incorporated herein by reference). Presence of single point mutations was verified by sequencing. Ba/F3 cells were maintained in RPMI 1640 growth media (Gibco, Karlsruhe, Germany) containing 10% fetal calf serum (Gibco) and P/S (Gibco) (200 U penicillin per mL and 200 μg streptomycin per mL). Parental cells were cultured in presence of 2 ng/mL interleukin-3 (IL-3, R&D, Wiesbaden, Germany). IL-3 independent Ba/F3 cells expressing wild-type and mutant BCR-ABL were generated by electroporation and transformed upon withdrawal of IL-3. Expression of Bcr-Abl was confirmed by western blot and flow-cytometric analysis.
Proliferation was measured using a MTS tetrazolium-based method by absorption of formazam at 490 nm (CellTiter 96, Promega, Madison, Wis., USA). […]

The subject of data set [4] is Ba/F3 cells expressing P loop mutant E255V. Nature of the data set: MTS proliferation, Ba/F3 Bcr-Abl E255V. The data set is classed as cell-based. As to the method: as §1, §2
A further data set deals with Bcr-Abl H396P (Homo sapiens, UniProt P00519, H396P). As to the method: (§3) Ba/F3 cells were cultured for 2,5 hours without and in presence of inhibitor at the indicated concentrations. Cell lysis, SDS-PAGE and immunoblotting were done as described previously.^42 Anti-Abl antibodies were obtained from Pharmingen (8E9) (BD Biosciences, Heidelberg, Germany) and Calbiochem-Novabiochem (Ab3) (Schwalbach, Germany). Antibodies to phosphotyrosine were purchased from Upstate Biotechnology (4G10) (Biozol, Eching, Germany) and Transduction (PY20) (BD Biosciences, Heidelberg, Germany). Bands were visualized using the ECL system (Amersham, Braunschweig, Germany).

The target in a further data set is Bcr-Abl Y253H (Homo sapiens, UniProt P00519, Y253H). As to the method: as §3
Another data set concerns the target Bcr-Abl E255K (Homo sapiens, UniProt P00519, E255K). As for the experimental part:
as §3

A further data set deals with Bcr-Abl E255V (Homo sapiens, UniProt P00519, E255V). As to the method: as §3
In a further data set the target is T2, Bcr-Abl/T3151 (Homo sapiens, UniProt P00519, T315I).
T2 construct: expressed in transfected cells; host or cells: Ba/F3 cells; the other entry of the earlier key: BCR (P11274, Breakpoint cluster region protein)
Nature of the data set: Bcr-Abl tyrosine phosphorylation in Ba/F3 cells, T3151. The data set is classed as cell-based.

Data set [5] addresses T3, Ba/F3 cells transformed with Bcr-Abl wild-type (Homo sapiens, UniProt P00519, cells depend on it, form not given).
T3 construct: fused on or other part: P11274 (Breakpoint cluster region protein)
Nature of the data set: MTS proliferation, Ba/F3 Bcr-Abl wild-type. The data set is classed as cell-based. As for the experimental part: as §1, §2

Data set [6] has as its target T4, Ba/F3 cells transformed with Bcr-Abl wild-type (Homo sapiens, UniProt P00519).
T4 construct: other: von Bubnoff et al. 2002; other: 48 hours of culture; fused on or other part: P11274 (Breakpoint cluster region protein)
The data set can be described thus: MTS proliferation, Ba/F3 Bcr-Abl wild-type. The data set is classed as cell-based. The following applies: for GI50: read-out: IC50, growth inhibition. As to the method:
as §1, §2

Data set [7] has as its system Ba/F3 cells expressing P loop mutant E255K. The data set can be described thus: MTS proliferation, Ba/F3 Bcr-Abl E255K. The class given is cell-based. As for the experimental part: as §1, §2
The subject of another data set is R10-Negative cells. Nature of the data set: CFSE cell division and viability. The class given is cell-based. The following applies: 144 h. As for the experimental part:
Using the vital stain, CFSE, it is possible to determine the concentrations of different inhibitors required to arrest cell division and also to quantitate the number of quiescent cells. […] However with exposure to ST1571 at the same concentration many cells continue dividing and 80% are still viable after 6 days; even at 100 nM ST1571, some cells are able to continue dividing and the viability is still 24% at 6 days.

The mark [8] stands for this setting: intravenous, read-out: Cmax (uM) IV.
Setting [9] is: intravenous, read-out: MRT (Min) IV (converted).
Setting [10] is: oral gavage, read-out: Cmax (uM) PO.
Where [11] appears, read: oral gavage, read-out: MRT (Min) PO (converted).

A word on the Cmax: it is the peak of the concentration-time curve. One may read the MRT as the average time that molecules of a dose stay in the body. As a reminder, the IC50 is the point on the concentration scale where inhibition reaches its midpoint. For orientation: viability means a read-out of living cells in per cent, often relative to untreated cells. Read a low viability as a greater loss of cells.

SMILES strings stand for the structures. Like-named read-outs stand apart in the source and are kept apart here.

`Cn1c(=O)c(-c2c(Cl)cccc2Cl)cc2cnc(Nc3cccc(CO)c3)nc21` [PD166326, 6-(2,6-Dichlorophenyl)-2-(3-hydroxymethylphenylamino)-8-methyl-8H-pyrido[2,3-d]pyrimidin-7-one]: the values for the bioavailability in data set [1] and in [2] were around 8% and 6.6%, respectively. In addition, the Cmax in data set [2] (setting [8]) worked out at 90 µM; in data set [2] (setting [10]), 3.2 µM. Moreover, the results for the MRT in data set [2] (setting [9]) and in data set [2] (setting [11]) were 103 min and 126 min, respectively. Moreover, in data set [2] (intravenous), the “AUG (uM × Min) IV” value came to 2395 µM·min. Further, the “AUG (uM × Min) PO” value in data set [2] (oral gavage) was found to be 158 µM·min.
Take `Cc1cc(Nc2ncc3cc(-c4c(Cl)cccc4Cl)c(=O)n(C)c3n2)ccc1F` [PD180970]: the “cellular IC95” value in data set [3] is listed as 770 nM; in data set [4] it was 935 nM. Also, the “concentration of complete disappearance of phosphotyrosine Bcr-Abl” value at Bcr-Abl wild-type was determined as 250 nM; at Bcr-Abl H396P, 250 nM; on Bcr-Abl Y253H, 2 µM; on Bcr-Abl E255K it was 1 µM; at Bcr-Abl E255V, 2 µM. Moreover, the IC50 in the data set on parental Ba/F3 cells amounted to 830 nM. The “activity (autophosphorylation) of Bcr-Abl/T3151” value on Bcr-Abl/T3151 is given as “did not impair”. In addition, the “fold higher concentrations than the most active compounds” value in data set [5] amounted to 5 fold.
`Cn1c(=O)c(-c2c(Cl)cccc2Cl)cc2cnc(Nc3ccc(NC(=O)CCCCCNC(=O)CCCC[C@@H]4SC[C@@H]5NC(=O)N[C@@H]54)cc3)nc21` [SKI DV 1-10 biotinyl, 2-{4-[6-(Biotinamido)hexanamido]phenylamino}-6-(2,6-dichlorophenyl)-8-methyl-8H-pyrido[2,3-d]pyrimidin-7-one]: in data set [6] (48 hours of culture), the “IC95, growth inhibition” value was found to be 515 nM and the GI50 amounted to 115 nM.
For the molecule `Cn1c(=O)c(-c2c(Cl)cccc2Cl)cc2cnc(Nc3cccc(N)c3)nc21` [SKI DV 2-43, 2-(3-Aminophenylamino)-6-(2,6-dichlorophenyl)-8-methyl-8H-pyrido[2,3-d]pyrimidin-7-one], the entries for the “cellular IC95” value in data set [3], in data set [7] and in data set [4] were 125 nM, 110 nM and 200 nM, respectively. The Cmax in data set [2] (setting [8]) came to 224 µM; in data set [2] (setting [10]), 10 µM. Also, the MRT in [2] (setting [9]) was 174 min; in data set [2] (setting [11]), 294 min. Further, in data set [2], the bioavailability came out at 4%. The “AUG (uM × Min) IV” value in [2] (intravenous) came to 20319 µM·min. Further, the “AUG (uM × Min) PO” value in data set [2] (oral gavage) worked out at 826 µM·min. Further, the “IC95, growth inhibition” value in [6] is recorded as 40 nM. Further, in data set [6] (ba/f3 cells transformed with bcr-abl wild-type), the GI50 was determined as 9 nM.
Molecule `Cc1ccc(NC(=O)c2ccc(CN3CCN(C)CC3)cc2)cc1Nc1nccc(-c2cccnc2)n1` [STI-571] yielded a viability at […] with R10-Negative cells (25 nM, after 6 days) of 80%. In the data set with R10-Negative cells (100 nM, at 6 days), this molecule displayed a viability at 0.1 µM of 24%.
